Consider six compounds from patent US20240277663A1, “PHARMACEUTICAL KITS AND USES THEREOF FOR TREATING COLORECTAL CANCER” (priority 2023, published 2024).

Where two headings read alike, the source gives them in different places. Marks after values point to notes of the source that are not given here.

The subject of assay [1] is CT26 allograft tumor (MSS subtype colorectal carcinoma). The experiment in a line: CT26 subcutaneous tumor model, HDAC inhibitors with or without RMP1-14. The conditions noted are these: for response in the mice on the growth of tumor (individual tumor volumes): compared to vehicle group or to other combinations, ABT-301 100 mg/kg, vorinostat 100 mg/kg, citarinostat 50 mg/kg, RMP1-14 200 μg.
Procedure: MC-38 cells (purchased from Kerafast, Inc.), derived from C57BL/6 murine colon adenocarcinoma cells typically classified as microsatellite instable, were maintained in DMEM with 10% fetal bovine serum, 100 U/mL penicillin, 100 μg/mL streptomycin, 10 mM HEPES, and 1× nonessential amino acid. All the cells were maintained in a humidified atmosphere having 5% CO2 at 37° C.
Female BALB/c mice (BALB/cByJNarl) aged 5-7 weeks (for CT26 subcutaneous tumor model), and female C57BL/6 mice (C57BL/6JNarl) aged 5-7 weeks (for MC-38 subcutaneous tumor model), were housed in standard cages within the animal facility at the Industrial Technology Research Institute (ITRI). A one-week acclimatization period preceded the commencement of the study, with the health of the mice monitored daily. Animals were kept in rooms at 22-26° C. with 40-70% humidity, positive pressure, 60% air recirculation, ventilation rate 15-20 changes per hour, and a controlled light-dark cycle (12-12 hours).
CT26 cells (2×10^5) were suspended in 100 μl of PBS and subcutaneously inoculated into the right flank of female BALB/c mice. Tumors were measured with calipers, and tumor size was calculated as follows: tumor volume (V)=(L×S^2)/2 (L, longest diameter, mm; S, shortest diameter, mm). Tumor size and body weight of mice were monitored and recorded twice to thrice per week. The antitumor activities of treatments were expressed as percentages of tumor growth inhibition (% TGI), as calculated using the following formula: [1−(final tumor volume−initial tumor volume for treated group)/(final tumor volume−initial tumor volume for vehicle group)]×100. Body weight of each mouse was also compared to that on the first day of treatment (Day 0) and expressed as a percentage of Day 0 value.
When mean tumor volume reached about 80-100 mm^3, treatments were initiated and the day of treatment initiation was designated as Day 0. […] Treatments were administered for indicated period (31 days) or until humane endpoints. Eight or nine mice were used in each group. […] RMP1-14 was prepared with PBS.

For assay [2], the target named is T1, HDAC11 (Homo sapiens, UniProt Q96DB2).
T1 sequence (Q96DB2 1-347): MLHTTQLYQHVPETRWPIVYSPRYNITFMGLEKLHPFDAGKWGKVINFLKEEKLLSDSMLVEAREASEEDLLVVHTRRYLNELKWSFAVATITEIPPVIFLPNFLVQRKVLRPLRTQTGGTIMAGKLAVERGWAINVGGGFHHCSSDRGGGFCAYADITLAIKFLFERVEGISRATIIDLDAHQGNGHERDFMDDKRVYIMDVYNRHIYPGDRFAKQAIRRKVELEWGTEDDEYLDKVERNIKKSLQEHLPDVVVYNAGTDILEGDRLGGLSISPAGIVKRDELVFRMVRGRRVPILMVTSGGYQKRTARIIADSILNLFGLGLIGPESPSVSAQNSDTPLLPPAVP
Put plainly: HDAC enzymatic activity assay (fluorogenic, Reaction Biology).

For assay [3], the target named is T2, HDAC7 (Homo sapiens, UniProt Q8WUI4).
T2 sequence (Q8WUI4 1-952): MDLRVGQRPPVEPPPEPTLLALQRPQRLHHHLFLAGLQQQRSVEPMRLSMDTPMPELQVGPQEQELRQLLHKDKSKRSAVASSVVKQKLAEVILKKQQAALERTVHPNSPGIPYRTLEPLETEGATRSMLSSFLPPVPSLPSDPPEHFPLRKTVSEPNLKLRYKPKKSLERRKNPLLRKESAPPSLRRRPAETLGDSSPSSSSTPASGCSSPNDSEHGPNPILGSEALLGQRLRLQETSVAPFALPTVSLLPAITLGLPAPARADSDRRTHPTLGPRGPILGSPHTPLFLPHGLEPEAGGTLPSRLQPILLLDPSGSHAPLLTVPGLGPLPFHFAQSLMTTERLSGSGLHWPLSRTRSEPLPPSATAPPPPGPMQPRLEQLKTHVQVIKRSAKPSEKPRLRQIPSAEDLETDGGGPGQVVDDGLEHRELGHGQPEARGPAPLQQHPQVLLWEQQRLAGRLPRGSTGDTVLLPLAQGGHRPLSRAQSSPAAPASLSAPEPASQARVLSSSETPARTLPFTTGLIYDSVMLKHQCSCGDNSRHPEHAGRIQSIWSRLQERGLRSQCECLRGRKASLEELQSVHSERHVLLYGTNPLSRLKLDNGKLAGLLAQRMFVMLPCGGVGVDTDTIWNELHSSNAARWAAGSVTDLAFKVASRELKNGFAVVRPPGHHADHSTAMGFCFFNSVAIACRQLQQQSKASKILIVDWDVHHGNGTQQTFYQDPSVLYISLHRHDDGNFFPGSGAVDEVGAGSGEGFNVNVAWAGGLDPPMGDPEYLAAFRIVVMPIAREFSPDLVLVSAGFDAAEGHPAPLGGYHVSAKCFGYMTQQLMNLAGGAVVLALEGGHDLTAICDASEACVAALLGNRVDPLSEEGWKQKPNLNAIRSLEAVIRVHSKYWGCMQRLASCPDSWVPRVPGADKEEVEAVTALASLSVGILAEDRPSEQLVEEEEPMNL
The assay is described as above.

Assay [4] has as its target T3, HDAC10 (Homo sapiens, UniProt Q969S8).
T3 sequence (Q969S8 1-669): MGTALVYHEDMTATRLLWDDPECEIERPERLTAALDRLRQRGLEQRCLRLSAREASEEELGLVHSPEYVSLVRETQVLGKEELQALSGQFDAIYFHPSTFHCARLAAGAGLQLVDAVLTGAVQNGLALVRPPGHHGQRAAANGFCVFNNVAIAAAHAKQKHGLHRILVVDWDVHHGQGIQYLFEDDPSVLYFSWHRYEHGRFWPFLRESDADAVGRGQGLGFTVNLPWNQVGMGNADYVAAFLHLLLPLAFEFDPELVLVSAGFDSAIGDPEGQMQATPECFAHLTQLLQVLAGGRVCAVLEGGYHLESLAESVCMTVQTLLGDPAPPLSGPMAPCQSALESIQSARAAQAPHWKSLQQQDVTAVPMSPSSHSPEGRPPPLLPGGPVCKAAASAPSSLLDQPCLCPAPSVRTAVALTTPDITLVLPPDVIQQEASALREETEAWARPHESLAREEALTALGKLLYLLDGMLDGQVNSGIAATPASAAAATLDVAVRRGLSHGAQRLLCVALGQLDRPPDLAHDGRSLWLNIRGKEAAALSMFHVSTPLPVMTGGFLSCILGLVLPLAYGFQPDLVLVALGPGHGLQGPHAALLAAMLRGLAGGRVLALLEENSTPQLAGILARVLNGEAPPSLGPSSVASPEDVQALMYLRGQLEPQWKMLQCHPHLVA
Described as above.

For assay [5], the target named is HDAC9 (Homo sapiens, UniProt Q9UKV0). The description is as above.
Sequence of HDAC9 (Q9UKV0 whole entry): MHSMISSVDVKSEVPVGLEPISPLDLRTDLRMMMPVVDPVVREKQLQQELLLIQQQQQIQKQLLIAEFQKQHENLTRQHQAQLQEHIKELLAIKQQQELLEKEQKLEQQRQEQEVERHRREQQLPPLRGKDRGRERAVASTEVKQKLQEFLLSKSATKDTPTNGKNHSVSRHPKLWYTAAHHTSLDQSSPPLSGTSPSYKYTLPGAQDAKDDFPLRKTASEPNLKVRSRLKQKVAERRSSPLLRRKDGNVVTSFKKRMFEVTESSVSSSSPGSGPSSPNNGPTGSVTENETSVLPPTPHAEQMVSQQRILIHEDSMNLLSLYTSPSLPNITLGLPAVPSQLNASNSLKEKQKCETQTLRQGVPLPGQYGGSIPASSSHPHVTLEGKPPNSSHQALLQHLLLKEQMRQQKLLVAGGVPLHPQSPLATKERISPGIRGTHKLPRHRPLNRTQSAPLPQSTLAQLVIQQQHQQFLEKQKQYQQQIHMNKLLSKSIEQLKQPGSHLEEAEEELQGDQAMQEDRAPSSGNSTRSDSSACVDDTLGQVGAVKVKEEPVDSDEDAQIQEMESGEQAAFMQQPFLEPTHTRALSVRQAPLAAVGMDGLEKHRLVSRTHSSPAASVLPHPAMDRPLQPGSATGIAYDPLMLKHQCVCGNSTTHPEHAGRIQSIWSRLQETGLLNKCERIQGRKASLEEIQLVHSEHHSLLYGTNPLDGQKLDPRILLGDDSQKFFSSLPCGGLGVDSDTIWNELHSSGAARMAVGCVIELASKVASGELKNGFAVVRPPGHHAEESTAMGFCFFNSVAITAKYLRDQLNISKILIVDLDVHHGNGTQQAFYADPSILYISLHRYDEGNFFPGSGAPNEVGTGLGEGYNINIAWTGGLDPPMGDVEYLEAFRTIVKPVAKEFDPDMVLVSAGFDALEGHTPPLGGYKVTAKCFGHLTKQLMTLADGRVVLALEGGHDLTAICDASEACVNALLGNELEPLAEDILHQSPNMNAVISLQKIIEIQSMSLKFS
Assay [6] relates to CT26 allograft tumor (MSS subtype colorectal carcinoma).
Assay [7] has the same test system. Put plainly: CT26 subcutaneous tumor model, multiple doses of ABT-301 with or without avelumab. It counts as in vivo, mouse. The method, then:
Treatments were administered for indicated period (24 days) or until humane endpoints. Ten mice were used in each group. […] Avelumab was prepared with PBS.

Assay [8] relates to MC-38 allograft tumor (MSI-H subtype colorectal carcinoma).
Procedure: As described herein, tumor responses were evaluated using Response Evaluation Criteria in Solid Tumors (RECIST) criteria. Complete response (CR) was defined as complete disappearance of measurable or evaluable tumor lesions; partial response (PR) was defined as reduction of the size of measurable tumor lesions by at least 30% (≥30%) compared to the original tumor size; stable disease (SD) was defined as reduction of the size of measurable tumor lesions by less than 30% (<30%) or enlargement of the size of measurable tumor lesions by less than 20% (<20%) compared to the original tumor size; and progressive disease (PD) was defined as growth of the tumor by more than 30% (>30%) in the tumor volume compared to the original tumor size or development of new lesions. […]
Female BALB/c mice (BALB/cByJNarl) aged 5-7 weeks (for CT26 subcutaneous tumor model), and female C57BL/6 mice (C57BL/6JNarl) aged 5-7 weeks (for MC-38 subcutaneous tumor model), were housed in standard cages within the animal facility at the Industrial Technology Research Institute (ITRI). A one-week acclimatization period preceded the commencement of the study, with the health of the mice monitored daily. […]
MC-38 cells (2×10^5) were suspended in 100 μl of PBS and subcutaneously inoculated into the right flank of female C57BL/6 mice. Tumors were measured with calipers, and tumor size was calculated as follows: tumor volume (V)=(LxS^2)/2 (L, longest diameter, mm; S, shortest diameter, mm). Tumor size and body weight of mice were monitored and recorded twice to thrice per week. The antitumor activities of treatments were expressed as percentages of tumor growth inhibition (% TGI), as calculated using the following formula: [1−(final tumor volume−initial tumor volume for treated group)/(final tumor volume−initial tumor volume for vehicle group)]×100. Body weight of each mouse was also compared to that on the first day of treatment (Day 0) and expressed as a percentage of Day 0 value. […]
The subject of assay [9] is colorectal cancer tumor. The experiment in a line: Another batch: HDAC inhibitors (PCI-34051, elevenostat, ABT-301) with or without RMP1-14 in tumor-bearing mice. The conditions noted are these: another batch of experiments, data not shown; compared to vehicle group or to other combinations. It counts as in vivo, mouse.
Where [10] appears, read: Day 28 after treatments, ABT-301 100 mg/kg PO, avelumab 100 μg IP, means ± SEM.

In the case of `O=C(CCCCCCNC(=O)c1cnc(N(c2ccccc2)c2ccccc2Cl)nc1)NO` [Citarinostat], in assay [1] (Day 22 after treatments, ABT-301 100 mg/kg PO, vorinostat 100 mg/kg PO, citarinostat 50 mg/kg IP, RMP1-14 200 μg IP), the “TGI (tumor growth inhibition)” value stood at 38%. In addition, in assay [1], the “response in the mice on the growth of tumor (individual tumor volumes)” value was “did not elicit a visible response”.
Take `Nc1cc(F)ccc1NC(=O)c1ccc(CNC(=O)/C=C/c2cccnc2)cc1` [Tucidinostat, reference compound]: the IC50 in assay [2], in assay [3], in assay [4] and in assay [5] was > 3 µM in each case.
Turning to “Avelumab: an anti-PD-L1 antibody [reference compound]”, the “complete response (CR) rate” value is reported as 1/8 in assay [6] (CT26-bearing BALB/c mice, n=8/group, ABT-301 100 mg/kg PO QD, avelumab 100 μg IP BIW) and 4/8 in assay [8] (MC-38-bearing C57BL/6 mice, n=8/group, ABT-301 100 mg/kg PO QD, avelumab 200 μg IP BIW, RMP1-14 200 μg IP BIW). Besides, the Median survival came out at 28 days in assay [6] (CT26 allograft tumor mice, over the entire study, ABT-301 100 mg/kg PO QD, avelumab 100 μg IP BIW) and 68 days in assay [8] (MC-38 allograft tumor mice, over the entire study, ABT-301 100 mg/kg PO QD, avelumab or RMP1-14 200 μg IP BIW). For the same compound, in assay [6] (setting [10]), the “TGI (tumor growth inhibition)” value amounted to 58.51 ± 14.14%. Moreover, the Tumor size was 559.63 ± 156.94 mm^3 in assay [6] (setting [10]); 31.79 ± 26.66** mm^3 in [7] (Day 24 after treatments, avelumab 200 μg alone, means ± SEM); 529.91 ± 329.24 mm^3 in [8] (Day 25 after treatments, ABT-301 100 mg/kg PO, avelumab 200 μg IP, RMP1-14 200 μg IP, means ± SEM). Besides, the “number of mice exhibiting complete response (CR)” value in assay [7] (avelumab 200 μg IP BIW alone, out of 10 mice) was determined as 7.
`COc1ccccc1NC(=O)NCc1ccc(C(=O)NO)cc1` [elevenostat]: in [9], the “response in the mice on the growth of tumor” value is given as “did not elicit a visible response”.
As to `O=C(CCCCCCC(=O)Nc1ccccc1)NO` [Vorinostat], in [1], the “response in the mice on the growth of tumor (individual tumor volumes)” value was “did not elicit a visible response”.
With `COc1ccc(Cn2ccc3ccc(C(=O)NO)cc32)cc1` [PCI-34051], the “response in the mice on the growth of tumor” value in assay [9] is “did not elicit a visible response”.
